The structures appear in SMILES notation.

The text below walks through data of patent US12662469B2 (SIRONAX LTD, priority 2018, dated 2026).

For the assay, the system named is Cell Necrosis. The experiment in a line: Cell necrosis assay / cell viability assay (necrosis inhibitor activity). Format: cell-based. As to conditions: necrosis inhibitor activity; EC data for 14-191 extrapolated; read-out: EC50.
`C[C@H]1CN(c2ncc(C#N)cn2)CCN1C(=O)N1N=CCC1c1ccccc1` (stereo partly drawn) [Compound 116B, 2-((3S)-3-methyl-4-(5-phenyl-4,5-dihydro-1H-pyrazole-1-carbonyl)piperazin-1-yl)pyrimidine-5-carbonitrile]: the EC50 was 1000 to 10000 nM.

With `C[C@H]1CN(c2ncc(F)cn2)CCN1C(=O)N1N=CCC1c1cccc(F)c1` (stereo partly drawn) [Compound 117A, ((S)-5-(3-fluorophenyl)-4,5-dihydro-H-pyrazol-1-yl)((S)-4-(5-fluoropyrimidin-2-yl)-2-methylpiperazin-1-yl)methanone], the EC50 is 1 to 1000 nM.

`C[C@H]1CN(c2ncc(F)cn2)CCN1C(=O)N1N=CC[C@@H]1c1cccc(F)c1` [Compound 117B, ((R)-5-(3-fluorophenyl)-4,5-dihydro-1H-pyrazol-1-yl)((S)-4-(5-fluoropyrimidin-2-yl)-2-methylpiperazin-1-yl)methanone]: the EC50 is 1 to 1000 nM.

As to `C[C@H]1CN(c2ncc(F)cn2)CCN1C(=O)N1N=CC[C@H]1c1cc(F)cc(F)c1` [Compound 118A, ((S)-5-(3,5-difluorophenyl)-4,5-dihydro-1H-pyrazol-1-yl)((S)-4-(5-fluoropyrimidin-2-yl)-2-methylpiperazin-1-yl)methanone], the EC50 was 1 to 1000 nM.

Take `C[C@H]1CN(c2ncc(F)cn2)CCN1C(=O)N1N=CC[C@@H]1c1cc(F)cc(F)c1` [Compound 118B, ((R)-5-(3,5-difluorophenyl)-4,5-dihydro-1H-pyrazol-1-yl)((S)-4-(5-fluoropyrimidin-2-yl)-2-methylpiperazin-1-yl)methanone]: the EC50 was 1 to 1000 nM.

As for `O=C(N1CC(Oc2cnccn2)C1)N1N=CCC1c1ccccc1` (stereo not drawn) [Compound 119, (5-phenyl-4,5-dihydro-1H-pyrazol-1-yl)(3-(pyrazin-2-yloxy)azetidin-1-yl)methanone], the EC50 was 1 to 1000 nM.

Regarding `N#Cc1cnc(OC2CN(C(=O)N3N=CCC3c3ccccc3)C2)s1` (stereo not drawn) [Compound 120, 2-((1-(5-phenyl-4,5-dihydro-1H-pyrazole-1-carbonyl)azetidin-3-yl)oxy)thiazole-5-carbonitrile], the EC50 is 1000 to 10000 nM.

Take `N#Cc1csc(OC2CN(C(=O)N3N=CCC3c3ccccc3)C2)n1` (stereo not drawn) [Compound 121, 2-((1-(5-phenyl-4,5-dihydro-1H-pyrazole-1-carbonyl)azetidin-3-yl)oxy)thiazole-4-carbonitrile]: the EC50 was 1 to 1000 nM.

Regarding `C[C@@H]1CN(c2ncc(F)cn2)C[C@@H](C)N1C(=O)N1N=CCC1c1ccccc1` (stereo partly drawn) [Compound 122, ((2R,6R)-4-(5-fluoropyrimidin-2-yl)-2,6-dimethylpiperazin-1-yl)(5-phenyl-4,5-dihydro-1H-pyrazol-1-yl)methanone], the EC50 was 1000 to 10000 nM.

Turning to `CC(=C1CN(C(=O)N2N=CCC2c2ccccc2)C1)c1ccccc1` (stereo not drawn) [Compound 123, (5-phenyl-4,5-dihydro-1H-pyrazol-1-yl)(3-(1-phenylethylidene)azetidin-1-yl)methanone], the EC50 is 1 to 1000 nM.

With `CC(c1ccccc1)C1CN(C(=O)N2N=CCC2c2ccccc2)C1` (stereo not drawn) [Compound 124, (5-phenyl-4,5-dihydro-1H-pyrazol-1-yl)(3-(1-phenylethyl)azetidin-1-yl)methanone], the EC50 was 1000 to 10000 nM.

Regarding `C#Cc1cc(OC2CN(C(=O)N3N=CCC3c3ccccc3)C2)ncn1` (stereo not drawn) [Compound 125, (3-((6-ethynylpyrimidin-4-yl)oxy)azetidin-1-yl)(5-phenyl-4,5-dihydro-1H-pyrazol-1-yl)methanone], the EC50 was 1000 to 10000 nM.

On to `O=C(N1CC(Oc2c(F)cc(F)cc2F)C1)N1N=CCC1c1cc(F)cc(F)c1` (stereo not drawn) [Compound 126, (5-(3,5-difluorophenyl)-4,5-dihydro-1H-pyrazol-1-yl)(3-(2,4,6-trifluorophenoxy)azetidin-1-yl)methanone], for which the EC50 is 1 to 1000 nM.

Regarding `O=C(N1CC(Oc2cc(Br)ncn2)C1)N1N=CCC1c1ccccc1` (stereo not drawn) [Compound 127, (3-((6-bromopyrimidin-4-yl)oxy)azetidin-1-yl)(5-phenyl-4,5-dihydro-1H-pyrazol-1-yl)methanone], the EC50 is 1 to 1000 nM.

Consider `O=C(N1CC(Oc2cc(F)ccc2F)C1)N1N=CCC1c1ccccc1` (stereo not drawn) [Compound 128, (3-(2,5-difluorophenoxy)azetidin-1-yl)(5-phenyl-4,5-dihydro-1H-pyrazol-1-yl)methanone], for which the EC50 is 1 to 1000 nM.

For `NC(=O)c1cccc(OC2CN(C(=O)N3N=CCC3c3cc(F)cc(F)c3)C2)c1` (stereo not drawn) [Compound 129, 3-((1-(5-(3,5-difluorophenyl)-4,5-dihydro-1H-pyrazole-1-carbonyl)azetidin-3-yl)oxy)benzamide], the EC50 is 1 to 1000 nM.

`NC(=O)c1ccc(OC2CN(C(=O)N3N=CCC3c3cc(F)cc(F)c3)C2)cc1` (stereo not drawn) [Compound 130, 4-((1-(5-(3,5-difluorophenyl)-4,5-dihydro-1H-pyrazole-1-carbonyl)azetidin-3-yl)oxy)benzamide]: the EC50 was 1 to 1000 nM.

As for `N#Cc1csc(OC2CN(C(=O)N3N=CCC3c3cc(F)cc(F)c3)C2)n1` (stereo not drawn) [Compound 131, 2-((1-(5-(3,5-difluorophenyl)-4,5-dihydro-1H-pyrazole-1-carbonyl)azetidin-3-yl)oxy)thiazole-4-carbonitrile], the EC50 was 1 to 1000 nM.

With `O=C(N1CC(=Cc2c(F)cccc2F)C1)N1N=CCC1c1cc(F)cc(F)c1` (stereo not drawn) [Compound 133, (3-(2,6-difluorobenzylidene)azetidin-1-yl)(5-(3,5-difluorophenyl)-4,5-dihydro-1H-pyrazol-1-yl)methanone], the 50% effective concentration (EC50) is 1 to 1000 nM.

With `O=C(N1CC(C(F)c2ccc(F)cc2F)C1)N1N=CCC1c1cc(F)cc(F)c1` (stereo not drawn) [Compound 134, (5-(3,5-difluorophenyl)-4,5-dihydro-1H-pyrazol-1-yl)(3-((2,4-difluorophenyl)fluoromethyl)azetidin-1-yl)methanone], the EC50 was 1 to 1000 nM.

With `O=C(N1CC(C(F)(F)c2ccc(F)cc2F)C1)N1N=CCC1c1cc(F)cc(F)c1` (stereo not drawn) [Compound 135, (5-(3,5-difluorophenyl)-4,5-dihydro-1H-pyrazol-1-yl)(3-((2,4-difluorophenyl)difluoromethyl)azetidin-1-yl)methanone], the EC50 is 1 to 1000 nM.

As to `N#Cc1ccc(OC2CN(C(=O)N3N=CCC3c3cc(F)cc(F)c3)C2)c(F)c1` (stereo not drawn) [Compound 136, 4-((1-(5-(3,5-difluorophenyl)-4,5-dihydro-1H-pyrazole-1-carbonyl)azetidin-3-yl)oxy)-3-fluorobenzonitrile], the EC50 is 1 to 1000 nM.

With `N#Cc1ccc(OC2CN(C(=O)N3N=CCC3c3cc(F)cc(F)c3)C2)cc1F` (stereo not drawn) [Compound 137, 4-((1-(5-(3,5-difluorophenyl)-4,5-dihydro-1H-pyrazole-1-carbonyl)azetidin-3-yl)oxy)-2-fluorobenzonitrile], the EC50 is 1 to 1000 nM.

Take `O=C(N1CC(=Cc2ccc(Cl)cc2F)C1)N1N=CCC1c1cc(F)cc(F)c1` (stereo not drawn) [Compound 138]: the EC50 is 1 to 1000 nM.

With `O=C(N1CC(=Cc2ccc(F)cc2Cl)C1)N1N=CCC1c1cc(F)cc(F)c1` (stereo not drawn) [Compound 139, (3-(2-chloro-4-fluorobenzylidene)azetidin-1-yl)(5-(3,5-difluorophenyl)-4,5-dihydro-1H-pyrazol-1-yl)methanone], the EC50 is 1 to 1000 nM.

On to `O=C(N1CC(=Cc2ccc(F)c(F)c2)C1)N1N=CCC1c1cc(F)cc(F)c1` (stereo not drawn) [Compound 140, (3-(3,4-difluorobenzylidene)azetidin-1-yl)(5-(3,5-difluorophenyl)-4,5-dihydro-1H-pyrazol-1-yl)methanone], for which the EC50 was 1 to 1000 nM.

For `O=C(N1CC(Oc2ccc(F)nc2)C1)N1N=CCC1c1cc(F)cc(F)c1` (stereo not drawn) [Compound 141, (5-(3,5-difluorophenyl)-4,5-dihydro-1H-pyrazol-1-yl)(3-((6-fluoropyridin-3-yl)oxy)azetidin-1-yl)methanone], the EC50 is 1 to 1000 nM.

Regarding `O=C(N1CC(Oc2ccc(F)cc2F)C1)N1N=CC[C@H]1c1cc(F)cc(F)c1` [Compound 142], the EC50 is 1 to 1000 nM.

Take `O=C(N1CC(Oc2ccc(F)cc2)C1)N1N=CC[C@H]1c1cc(F)cc(F)c1` [Compound 143]: the EC50 was 1 to 1000 nM.

With `O=C(N1CC(Oc2ccccc2F)C1)N1N=CC[C@H]1c1cc(F)cc(F)c1` [Compound 144], the EC50 was 1 to 1000 nM.

For `O=C(N1CC(Oc2ccc(F)nc2F)C1)N1N=CC[C@H]1c1cc(F)cc(F)c1` [Compound 145], the EC50 is 1 to 1000 nM.

In the case of `NC(=O)c1ccc(OC2CN(C(=O)N3N=CCC3c3cc(F)cc(F)c3)C2)cc1F` (stereo not drawn) [Compound 155], the EC50 is 1 to 1000 nM.

As to `NC(=O)c1c(F)cc(OC2CN(C(=O)N3N=CCC3c3cc(F)cc(F)c3)C2)cc1F` (stereo not drawn) [Compound 156], the 50% effective concentration (EC50) is 1 to 1000 nM.

Regarding `NC(=O)c1c(F)cc(OC2CN(C(=O)N3N=CCC3c3cc(F)cc(F)c3)C2)cc1Cl` (stereo not drawn) [Compound 157], the EC50 is 1 to 1000 nM.

For `NC(=O)c1cc(OC2CN(C(=O)N3N=CCC3c3cc(F)cc(F)c3)C2)ccc1Cl` (stereo not drawn) [Compound 158], the EC50 is 1 to 1000 nM.

`NC(=O)c1cc(OC2CN(C(=O)N3N=CCC3c3cc(F)cc(F)c3)C2)ccc1F` (stereo not drawn) [Compound 159]: the EC50 is 1 to 1000 nM.

Regarding `CNC(=O)c1c(F)cc(OC2CN(C(=O)N3N=CCC3c3cc(F)cc(F)c3)C2)cc1F` (stereo not drawn) [Compound 160], the EC50 is 1 to 1000 nM.

For the compound `CNC(=O)c1cc(OC2CN(C(=O)N3N=CCC3c3cc(F)cc(F)c3)C2)ccc1Cl` (stereo not drawn) [Compound 161], the EC50 was 1 to 1000 nM.

Take `CNC(=O)c1cc(OC2CN(C(=O)N3N=CCC3c3cc(F)cc(F)c3)C2)ccc1F` (stereo not drawn) [Compound 162]: the EC50 is 1 to 1000 nM.

With `CNC(=O)c1cccc(OC2CN(C(=O)N3N=CCC3c3cc(F)cc(F)c3)C2)c1` (stereo not drawn) [Compound 163], the EC50 was 1 to 1000 nM.

On to `CNC(=O)c1cccc(OC2CN(C(=O)N3N=CCC3c3cc(F)cc(F)c3)C2)c1Cl` (stereo not drawn) [Compound 164], for which the EC50 is 1 to 1000 nM.

Consider `CNC(=O)c1ccc(OC2CN(C(=O)N3N=CCC3c3cc(F)cc(F)c3)C2)cc1` (stereo not drawn) [Compound 165], for which the EC50 was 1 to 1000 nM.

In the case of `O=C(N1CC(Oc2ccc(-c3ncc[nH]3)cc2)C1)N1N=CCC1c1cc(F)cc(F)c1` (stereo not drawn) [Compound 166], the EC50 was 1 to 1000 nM.

With `O=C1NCc2cc(OC3CN(C(=O)N4N=CCC4c4cc(F)cc(F)c4)C3)ccc21` (stereo not drawn) [Compound 167], the EC50 was 1 to 1000 nM.

Take `O=C1NCc2c1csc2OC1CN(C(=O)N2N=CCC2c2cc(F)cc(F)c2)C1` (stereo not drawn) [Compound 168]: the EC50 is 1 to 1000 nM.

One may read the EC50 as the concentration that produces a half-maximal response.
